In patent US4994441A, “Dental anti-plaque and anti-caries agent” (priority 1987, dated 1991):

Tests used:
S. sanguis OMZ 9 = conditions: for Inhibition (%) of bacterial adhesion to plastic tubes: 1 mg/ml, 4 h; for Inhibitory effect on adhesion to plastic tubes (in words): preliminary tests
A. viscosus OMZ 105 [1] = conditions: for Inhibition (%) of bacterial adhesion to plastic tubes: 1 mg/ml, 4 h; for Inhibitory effect on adhesion to plastic tubes (in words): preliminary tests
S. mutans OMZ 176 = assay: Inhibition of bacterial adhesion to plastic (polypropylene) tubes; conditions: 1 mg/ml, 4 h
A. viscosus OMZ 105 [2] = test system: A. viscosus OMZ 105
A. naeslundii ATCC 12104 = conditions: A. naeslundii ATCC 12104, no control of growth phase; desialylated human erythrocytes (A+); none = no inhibition up to 20 mg/ml

Compound | Inhibition (%) of bacterial adhesion to plastic tubes (S. sanguis OMZ 9) | Inhibition (%) of bacterial adhesion to plastic tubes (A. viscosus OMZ 105 [1]) | Inhibition (%) of bacterial adhesion to plastic tubes (S. mutans OMZ 176) | Inhibitory effect on adhesion to plastic tubes (in words) (S. sanguis OMZ 9) | Inhibitory effect on adhesion to plastic tubes (in words) (A. viscosus OMZ 105 [1]) | further results
Polylysine | 12% | 46% | 30% |  |  | 
O=C[C@H](O)[C@@H](O)[C@H](O)[C@H](O)CO [glucose] |  |  |  | nonactivity | nonactivity | 
Polyglutamic acid | 6% | 22% | 20% |  |  | 
OC[C@H]1O[C@@H](O[C@H]2[C@H](O)[C@@H](O)C(O)O[C@@H]2CO)[C@H](O)[C@@H](O)[C@H]1O (some centres unmarked) [Lactose] |  |  |  |  |  | Minimum concentration resulting in complete inhibition of hemagglutination (A. viscosus OMZ 105 [2]; A. viscosus OMZ 105, no control of growth phase, desialylated human erythrocytes (A+), none = no inhibition up to 20 mg/ml): none; Concentration expressed in galactoside equivalents/ml (minimum concentration resulting in complete inhibition of hemagglutination) (A. viscosus OMZ 105 [2]; A. viscosus OMZ harvested in the exponential phase): > 10 mg/mL; Concentration expressed in dry weight/ml (minimum concentration resulting in complete inhibition of hemagglutination) (A. viscosus OMZ 105 [2]; A. viscosus OMZ harvested in the exponential phase, none = no inhibition up to 20 mg/ml): none; Minimum concentration resulting in complete inhibition of hemagglutination (A. naeslundii ATCC 12104): none
COC1OC(CO)C(O)C(O)C1O (stereo not drawn) [Methyl α annoside] | 11% | 10% | 3% |  |  | 
NCC(=O)O [glycine] |  |  |  | nonactivity | nonactivity | 
